Legend:
[1] = test system: basal forebrain cholinergic neurons; conditions: mouse NGF 25 μg/ml, Barnett et al.; cited from earlier work
NGF mRNA = assay: Northern/slot blot of neurotrophin mRNA from astrocytes: NGF; assay type: cell-based, NIH Swiss mice; parameters: key to NGF mRNA: The conditions which produced a detectable amount of each of the neurotrophin mRNAs are indicated by a “+”; a “++” indicating that at least twice the detectable amount was present; Those blots which were negative are indicated by a “−”; conditions: NGF 40 ng/ml, 24 hours
Method: (§1) Induction of neurotrophin mRNA was determined by northern blot analysis of astrocytes cultured with AIT-082, NGF, or both. The cells were harvested and RNA extracted at 24 hours after treatment.
(§2) More particularly, astrocytes from the cerebral cortex of NIH Swiss mice (Harlan) were isolated. Briefly, newborn pups (0-24 hours) were decapitated. Their brains were removed under aseptic conditions and were placed in modified Dulbecco's medium (DMEM) containing 20% heat-inactivated horse serum (Hyclone) (“complete medium”). The neopallium was then dissected from each cerebral hemisphere and minced into 1 mm cubes.
(§3) The astrocytes were then isolated by mechanical dissociation. The cubes were vortexed at maximum speed for one minute. The cell suspension was then passed first through 75 mm Nitex then through 10 mm Nitex. The resulting cell suspension was diluted in complete medium to a final concentration of one brain per 10 ml of complete medium. Ten milliliters of the diluted cell suspension was added to each 100 mm Falcon tissue culture plate (Fisher). After 3 days the medium was replaced with 10 ml fresh complete medium and subsequently was replaced twice weekly with DMEM containing 10% heat inactivated horse serum (“growth medium”). After two weeks in culture the astrocytes formed a confluent monolayer.
(§4) For RNA extraction, astrocytes were trypsinized. The astrocytes were then replated onto 100 mm PORN coated plates at a cell density of 10^6 cells per plate (10 ml growth medium). After 2 hrs PBS, guanosine (Guo), or GTP at 10 mM were added to the appropriate plates. Total RNA was harvested from 1.5×10^7 cells for each treatment, 4 and 24 hrs after treatment using TRIzol reagent and supplier protocol (GIBCO BRL/Life Technologies, Inc.). For slot blots, total RNA was bound to Hybond-N filters (Amersham/United States Biochemicals) as described in Transfer and Immobilization of Nucleic Acids and Proteins to S & S Solid Supports (S and S Protocols: Schleicher & Schuell, New Hampshire, USA). Northern blots were also performed using […] total RNA from each sample. These were electrophoresed in 1% agarose gels containing formaldehyde and blotted onto Hybond-N filters according to S and S protocols.
(§5) The blots were probed with ^32P-labeled cDNA (NGF, NT-3 and BDNF probes) or oligonucleotide probe (FGF-2) by hybridization in Piperazine-N,N′-bis-(2-ethanesulfonic acid) (PIPES) buffer (50 mM PIPES, pH 6.8; 50 mM NaH2PO4; 0.1 M NaCl; 5% SDS and 1 mM EDTA) overnight at 50° C. […] Various concentrations ([…] of total RNA), as determined by spectrophotometry, of each sample were blotted and probed so that quantification could be done after insuring a linear film response. Quantification was performed using MCID Image Analysis (St. Catherine's, Ontario, Canada). […]

PC12 cells = assay: Neuritogenesis in PC12 cells; assay type: cell-based, rat; conditions: NGF 40 ng/ml
Method in brief: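 Rat pheochromocytoma PC12 cells on poly-ornithine were treated with AIT-082 alongside saturating NGF (40 ng/ml) from plating for 48 h, then formalin-fixed. Neurites ≥1 cell-body diameter with growth cone were counted; the neurite-bearing fraction is expressed relative to NGF alone (100%), mean ±SEM of 6 cultures.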

NT-3 mRNA = assay: Northern blot of neurotrophin mRNA from astrocytes: NT-3; assay type: cell-based, NIH Swiss mice; parameters: key: The conditions which produced a detectable amount of each of the neurotrophin mRNAs are indicated by a “+”; a “++” indicating that at least twice the detectable amount was present; Those blots which were negative are indicated by a “−”; conditions: NGF 40 ng/ml, 24 hours
Method: as §1, §2, §3
(§6) For RNA extraction, astrocytes were trypsinized. The astrocytes were then replated onto 100 mm PORN coated plates at a cell density of 10^6 cells per plate (10 ml growth medium). […]
as §5

FGF-2 mRNA = assay: Northern/slot blot of neurotrophin mRNA from astrocytes: FGF-2; assay type: cell-based, NIH Swiss mice; parameters: key to FGF-2 mRNA: The conditions which produced a detectable amount of each of the neurotrophin mRNAs are indicated by a “+”; a “++” indicating that at least twice the detectable amount was present; Those blots which were negative are indicated by a “−”; conditions: NGF 40 ng/ml, 24 hours
Method: as §1, §2, §3, §4, §5

BDNF mRNA = assay: Northern blot of neurotrophin mRNA from astrocytes: BDNF; assay type: cell-based, NIH Swiss mice; parameters: key: The conditions which produced a detectable amount of each of the neurotrophin mRNAs are indicated by a “+”; a “++” indicating that at least twice the detectable amount was present; Those blots which were negative are indicated by a “−”; conditions: NGF 40 ng/ml, 24 hours
Method: as §1, §2, §3, §6, §5

NGF: nerve growth factor
rescue of ChAT-positive cells following the FFT lesion [1]: robust rescue effect | NGF mRNA (NGF mRNA): − | Proportion of cells bearing neurites, NGF alone (PC12 cells; Methemoglobin 1 μM): 0.2 ± 0.02 | Proportion of cells bearing neurites, NGF alone (PC12 cells; Methylene Blue 5 μM): 0.24 ± 0.03 | Proportion of cells bearing neurites, NGF alone (PC12 cells; Zn Protoporphyrin IX 1 μM): 0.22 ± 0.03 | Proportion of cells bearing neurites, NGF alone (PC12 cells; no inhibitor, 48 hours): 0.2 ± 0.02 | NT-3 mRNA (NT-3 mRNA): − | FGF-2 mRNA (FGF-2 mRNA): − | BDNF mRNA (BDNF mRNA): +

From patent US6338963B1, “Use of carbon monoxide dependent guanylyl cyclase modifiers to stimulate neuritogenesis” (NeoTherapeutics, Inc., priority 1994, dated 2002)
